# In patent US20190382850A1, “METHOD FOR IDENTIFYING MITOCHONDRIAL DNA IN EXTRACELLULAR VESICLES AND TREATMENT OF MTDNA-RELATED DISORDERS AND CANCER” (Memorial Sloan-Kettering Cancer Center, priority 2017, published 2019):
# Key:
# [1] = test system: mitochondrial complex protein; assay: Western blot of OXPHOS protein cocktail in HT-treated cells; format: cell-based, human; conditions: fulvestrant; FIG. 11d
# Excerpt: (Panel a), Representative bright field images of MCF7 po cells±CAF-EVs (3×10^9/weekly for 40 days). Bar graph of number of MS is also reported at the endpoint of the experiment (40 days). (Panel b), HT led to decreased expression of mRNA involved in protein synthesis and OXPHOS signaling with z score and -log (p-values)- as determined by Ingenuity analysis of microarray data from RNA isolated FIG. 5a (MCF7), single P values are also reported. (Panel c), OXPHOS potential determined as changes of respiration rate under mitochondrial stressors by seahorse technology (oligomycin 1 μM, rotenone 100 nM) in cancer cells isolated from FIG. 5b (MCF7, PT1). […] (Panel e), Mitochondrial Complex I/IV activity quantification as determined by nmol/min/mg of protein in luminal breast cancer cell lines from panel a. […]
# For immunoblotting assays, cells were lysed in buffer (50 mmol/L Tris at pH 7.5, 150 mmol/L NaCl, 5 μg/mL aprotinin, pepstatin, 1% NP-40, lmmol/L EDTA, 0.25% deoxycholate, and protease inhibitor cocktail tablet, Sigma). […] The enrichment of CAFs in xenografts was determined by desmin immunohistochemistry (IHC) in tumor-derived sections. […] Viable cells were determined 7-14 days after treatment using trypan blue and cell counting using bright field microscopy or DAPI exclusion staining by flow cytometry (Dako Cytomation). […]
# [2] = test system: luminal breast cancer cells and xenograft derived cells; assay: mtDNA level (qPCR copy number) in HT-induced dormant cells; format: cell-based, human; conditions: fulvestrant 10 μM for 2 months; several models of HT-induced dormancy; FIG. 5b
# Description: (Panel b) mtDNA level (qPCR as fold change, naïve cells was used as reference) in luminal breast cancer cells and xenograft derived cells (multiple models)±HT (fulvestrant, 10 μM for 2 months). (Panel c) Dormant MCF7 cells (HTD) were isolated and treated with 3×10^9 mCAF-derived EVs (wt-mtDNA^hi or ρ0-mtDNA^lo) weekly ×4+HT (fulvestrant, 10 μM/weekly). After 40 days, mammosphere (MS) number and mitochondrial membrane potential (Δψ) by TMRE staining (red) in HTR/mito^hi EV and HTD/mito^lo EV educated cells was determined; scale bar 15 μm. […] (Panel f) Murine mitochondrial RNA expression (14 genes, as fold change -log10scale-) by qRT-PCR in HTR and HTS cells (panel e) (reference HTDorm cells; MCF7); the expression of nuclear encoded murine (non-mitochondrial RNA) transcripts was also determined (Cox4, β2M). […]
# Generation of HTD cells was performed by treating ER+(GFP+) breast cancer cell lines (MCF7, ZR751, BT474) with HT (fulvestrant, 10 μM) for 2 months. […] Viable cell number was subsequently determined using trypan blue exclusion and cell counting using bright field microscopy HTD cells were then cultured in vitro or injected in vivo for further studies. […] Proliferation was determined by Cal cein AM technique (InVitrogen). […] After 40 days, mammosphere number (bright field microscopy) was determined after 40 days. […] Tumor growth was determined by BLI and after necropsy. […]
smiles,measurement,setting,value
C[C@]12CC[C@@H]3c4ccc(O)cc4C[C@@H](CCCCCCCCC[S+]([O-])CCCC(F)(F)C(F)(F)F)[C@H]3[C@@H]1CC[C@@H]2O (some centres unmarked) [fulvestrant],mitochondrial complex protein expression in cells treated with HT,[1],reduced
same,reduction of mtDNA level (copy number) vs control,[2],70-90%
